Assay results as given in patent US9790178B2, “Pyrrolidinyl urea, thiourea, guanidine and cyanoguanidine compounds as TrkA kinase inhibitors” (Array BioPharma Inc., priority 2012, dated 2017).

Assays:
Test in all cases: KinaseProfiler off-target kinase profiling
Format in all cases: biochemical
MSK2 = target: T1, MSK2 (Homo sapiens, UniProt O75676); conditions: 10 μM, ATP near Km
T1 construct: purchased Millipore, Inc. (KinaseProfiler service)
How it was run: (§1)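 Reported as mean POC (two replicates). Conditions: compound 10 μM, ATP near individual kinase Km.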

MELK = target: T2, MELK (Homo sapiens, UniProt Q14680); conditions: 10 μM, ATP near Km
T2 construct: purchased Millipore, Inc. (KinaseProfiler service)
How it was run: as §1

Abl2 = target: T3, Abl2 (Homo sapiens, UniProt P42684); conditions: 10 μM, ATP near Km
T3 construct: purchased Millipore, Inc. (KinaseProfiler service)
How it was run: as §1

EGFR = target: T4, EGFR (Homo sapiens, UniProt P00533); conditions: 10 μM, ATP near Km
T4 construct: purchased Millipore, Inc. (KinaseProfiler service)
How it was run: as §1

CSK = target: T5, CSK (Homo sapiens, UniProt P41240); conditions: 10 μM, ATP near Km
T5 construct: purchased Millipore, Inc. (KinaseProfiler service)
How it was run: as §1

EphA3 = target: T6, EphA3 (Homo sapiens, UniProt P29320); conditions: 10 μM, ATP near Km
T6 construct: purchased Millipore, Inc. (KinaseProfiler service)
How it was run: as §1

DYRK2 = target: T7, DYRK2 (Homo sapiens, UniProt Q92630); conditions: 10 μM, ATP near Km
T7 construct: purchased Millipore, Inc. (KinaseProfiler service)
How it was run: as §1

EphB1 = target: T8, EphB1 (Homo sapiens, UniProt P54762); conditions: 10 μM, ATP near Km
T8 construct: purchased Millipore, Inc. (KinaseProfiler service)
How it was run: as §1

HIPK1 = target: T9, HIPK1 (Homo sapiens, UniProt Q86Z02); conditions: 10 μM, ATP near Km
T9 construct: purchased Millipore, Inc. (KinaseProfiler service)
How it was run: as §1

Flt1 = target: T10, Flt1 (Homo sapiens, UniProt P17948); conditions: 10 μM, ATP near Km
T10 construct: purchased Millipore, Inc. (KinaseProfiler service)
How it was run: as §1

SRC = target: T11, SRC (Homo sapiens, UniProt P12931); conditions: 10 μM, ATP near Km
T11 construct: purchased Millipore, Inc. (KinaseProfiler service)
How it was run: as §1

CK1gamma1 = target: T12, CK1gamma1 (Homo sapiens, UniProt Q9HCP0); conditions: 10 μM, ATP near Km
T12 construct: purchased Millipore, Inc. (KinaseProfiler service)
How it was run: as §1

EphA8 = target: T13, EphA8 (Homo sapiens, UniProt P29322); conditions: 10 μM, ATP near Km
T13 construct: purchased Millipore, Inc. (KinaseProfiler service)
How it was run: as §1

BLK_m = target: T14, BLK_m (Mus musculus, UniProt P16277); conditions: 10 μM, ATP near Km
T14 construct: purchased Millipore, Inc. (KinaseProfiler service)
How it was run: as §1

WNK3 = target: T15, WNK3 (Homo sapiens, UniProt Q9BYP7); conditions: 10 μM, ATP near Km
T15 construct: purchased Millipore, Inc. (KinaseProfiler service)
How it was run: as §1

PKCzeta = target: T16, PKCzeta (Homo sapiens, UniProt Q05513); conditions: 10 μM, ATP near Km
T16 construct: purchased Millipore (KinaseProfiler service)
How it was run: as §1

MKK4_m = target: T17, MKK4_m (Mus musculus, UniProt P47809); conditions: 10 μM, ATP near Km
T17 construct: purchased Millipore, Inc. (KinaseProfiler service)
How it was run: as §1

Txk = target: T18, Txk (Homo sapiens, UniProt P42681); conditions: 10 μM, ATP near Km
T18 construct: purchased Millipore, Inc. (KinaseProfiler service)
How it was run: as §1

TAO2 = target: T19, TAO2 (Homo sapiens, UniProt Q9UL54); conditions: 10 μM, ATP near Km
T19 construct: purchased Millipore, Inc. (KinaseProfiler service)
How it was run: as §1

Syk = target: T20, Syk (Homo sapiens, UniProt P43405); conditions: 10 μM, ATP near Km
T20 construct: purchased Millipore, Inc. (KinaseProfiler service)
How it was run: as §1

PASK = target: T21, PASK (Homo sapiens, UniProt Q96RG2); conditions: 10 μM, ATP near Km
T21 construct: purchased Millipore, Inc. (KinaseProfiler service)
How it was run: as §1

Plk1 = target: T22, Plk1 (Homo sapiens, UniProt P53350); conditions: 10 μM, ATP near Km
T22 construct: purchased Millipore (KinaseProfiler service)
How it was run: as §1

PRK2 = target: T23, PRK2 (Homo sapiens, UniProt Q16513); conditions: 10 μM, ATP near Km
T23 construct: purchased Millipore (KinaseProfiler service)
How it was run: as §1

Rsk1 = target: T24, Rsk1 (Homo sapiens, UniProt Q15418); conditions: 10 μM, ATP near Km
T24 construct: purchased Millipore (KinaseProfiler service)
How it was run: as §1

p38beta = target: T25, p38beta (Homo sapiens, UniProt Q15759); conditions: 10 μM, ATP near Km
T25 construct: purchased Millipore, Inc. (KinaseProfiler service)
How it was run: as §1

CAMK2d = target: T26, CAMK2d (Homo sapiens, UniProt Q13557); conditions: 10 μM, ATP near Km
T26 construct: purchased Millipore, Inc. (KinaseProfiler service)
How it was run: as §1

Fgr = target: T27, Fgr (Homo sapiens, UniProt P09769); conditions: 10 μM, ATP near Km
T27 construct: purchased Millipore, Inc. (KinaseProfiler service)
How it was run: as §1

Met = target: T28, Met (Homo sapiens, UniProt P08581); conditions: 10 μM, ATP near Km
T28 construct: purchased Millipore, Inc. (KinaseProfiler service)
How it was run: as §1

ROCK-II = target: T29, ROCK-II (Homo sapiens, UniProt O75116); conditions: 10 μM, ATP near Km
T29 construct: purchased Millipore (KinaseProfiler service)
How it was run: as §1

Pyk2 = target: T30, Pyk2 (Homo sapiens, UniProt Q14289); conditions: 10 μM, ATP near Km
T30 construct: purchased Millipore (KinaseProfiler service)
How it was run: as §1

DAPK1 = target: T31, DAPK1 (Homo sapiens, UniProt P53355); conditions: 10 μM, ATP near Km
T31 construct: purchased Millipore, Inc. (KinaseProfiler service)
How it was run: as §1

CK2 = target: T32, CK2 (Homo sapiens, UniProt P68400); conditions: 10 μM, ATP near Km
T32 construct: purchased Millipore, Inc. (KinaseProfiler service)
How it was run: as §1

MKK7beta = target: T33, MKK7beta (Homo sapiens, UniProt O14733); conditions: 10 μM, ATP near Km, POC verified as a false positive (footnote)
T33 construct: purchased Millipore, Inc. (KinaseProfiler service)
How it was run: as §1

MuSK = target: T34, MuSK (Homo sapiens, UniProt O15146); conditions: 10 μM, ATP near Km
T34 construct: purchased Millipore, Inc. (KinaseProfiler service)
How it was run: as §1

JAK2 = target: T35, JAK2 (Homo sapiens, UniProt O60674); conditions: 10 μM, ATP near Km
T35 construct: purchased Millipore, Inc. (KinaseProfiler service)
How it was run: as §1

BrSK2 = target: T36, BrSK2 (Homo sapiens, UniProt Q8IWQ3); conditions: 10 μM, ATP near Km
T36 construct: purchased Millipore, Inc. (KinaseProfiler service)
How it was run: as §1

MRCKalpha = target: T37, MRCKalpha (Homo sapiens, UniProt Q5VT25); conditions: 10 μM, ATP near Km
T37 construct: purchased Millipore, Inc. (KinaseProfiler service)
How it was run: as §1

Tie2 = target: T38, Tie2 (Homo sapiens, UniProt Q02763); conditions: 10 μM, ATP near Km
T38 construct: purchased Millipore, Inc. (KinaseProfiler service)
How it was run: as §1

ROCK-I = target: T39, ROCK-I (Homo sapiens, UniProt Q13464); conditions: 10 μM, ATP near Km
T39 construct: purchased Millipore (KinaseProfiler service)
How it was run: as §1

p38delta = target: T40, p38delta (Homo sapiens, UniProt O15264); conditions: 10 μM, ATP near Km
T40 construct: purchased Millipore, Inc. (KinaseProfiler service)
How it was run: as §1

TrkB = target: T41, TrkB (Homo sapiens, UniProt Q16620); conditions: 10 μM, ATP near Km
T41 construct: purchased Millipore, Inc. (KinaseProfiler service)
How it was run: as §1

T19 sequence (Q9UL54 whole entry): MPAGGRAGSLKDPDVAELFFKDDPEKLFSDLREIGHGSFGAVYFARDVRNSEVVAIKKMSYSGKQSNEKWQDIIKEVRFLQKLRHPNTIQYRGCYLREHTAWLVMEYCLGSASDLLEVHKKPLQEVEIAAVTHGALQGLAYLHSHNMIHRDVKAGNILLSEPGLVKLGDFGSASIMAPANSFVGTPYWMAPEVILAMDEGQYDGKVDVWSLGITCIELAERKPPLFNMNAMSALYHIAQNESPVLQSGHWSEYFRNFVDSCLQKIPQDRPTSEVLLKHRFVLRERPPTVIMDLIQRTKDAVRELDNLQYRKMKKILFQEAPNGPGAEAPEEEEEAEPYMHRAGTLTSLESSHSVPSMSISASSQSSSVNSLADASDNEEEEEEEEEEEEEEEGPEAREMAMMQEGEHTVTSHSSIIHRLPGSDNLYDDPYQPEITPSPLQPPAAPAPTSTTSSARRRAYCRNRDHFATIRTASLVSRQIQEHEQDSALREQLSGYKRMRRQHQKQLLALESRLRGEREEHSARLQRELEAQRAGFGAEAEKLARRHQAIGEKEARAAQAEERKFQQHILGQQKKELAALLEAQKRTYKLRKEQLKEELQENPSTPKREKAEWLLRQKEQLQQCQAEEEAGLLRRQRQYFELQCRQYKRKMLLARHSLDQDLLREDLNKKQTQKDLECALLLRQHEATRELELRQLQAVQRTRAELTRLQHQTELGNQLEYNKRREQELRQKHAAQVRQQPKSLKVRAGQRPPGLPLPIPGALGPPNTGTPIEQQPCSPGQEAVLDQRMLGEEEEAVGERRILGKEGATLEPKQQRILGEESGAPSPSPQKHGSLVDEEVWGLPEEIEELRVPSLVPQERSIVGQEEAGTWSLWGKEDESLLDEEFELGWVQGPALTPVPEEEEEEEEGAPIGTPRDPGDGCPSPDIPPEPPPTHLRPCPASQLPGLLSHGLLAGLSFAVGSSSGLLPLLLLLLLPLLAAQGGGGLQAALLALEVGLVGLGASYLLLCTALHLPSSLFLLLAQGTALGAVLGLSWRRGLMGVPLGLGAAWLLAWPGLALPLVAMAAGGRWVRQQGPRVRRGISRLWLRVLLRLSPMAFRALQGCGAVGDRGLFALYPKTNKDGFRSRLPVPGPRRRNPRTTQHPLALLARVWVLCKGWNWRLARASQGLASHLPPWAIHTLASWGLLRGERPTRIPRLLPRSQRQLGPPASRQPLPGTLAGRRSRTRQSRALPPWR
T35 sequence (O60674 whole entry): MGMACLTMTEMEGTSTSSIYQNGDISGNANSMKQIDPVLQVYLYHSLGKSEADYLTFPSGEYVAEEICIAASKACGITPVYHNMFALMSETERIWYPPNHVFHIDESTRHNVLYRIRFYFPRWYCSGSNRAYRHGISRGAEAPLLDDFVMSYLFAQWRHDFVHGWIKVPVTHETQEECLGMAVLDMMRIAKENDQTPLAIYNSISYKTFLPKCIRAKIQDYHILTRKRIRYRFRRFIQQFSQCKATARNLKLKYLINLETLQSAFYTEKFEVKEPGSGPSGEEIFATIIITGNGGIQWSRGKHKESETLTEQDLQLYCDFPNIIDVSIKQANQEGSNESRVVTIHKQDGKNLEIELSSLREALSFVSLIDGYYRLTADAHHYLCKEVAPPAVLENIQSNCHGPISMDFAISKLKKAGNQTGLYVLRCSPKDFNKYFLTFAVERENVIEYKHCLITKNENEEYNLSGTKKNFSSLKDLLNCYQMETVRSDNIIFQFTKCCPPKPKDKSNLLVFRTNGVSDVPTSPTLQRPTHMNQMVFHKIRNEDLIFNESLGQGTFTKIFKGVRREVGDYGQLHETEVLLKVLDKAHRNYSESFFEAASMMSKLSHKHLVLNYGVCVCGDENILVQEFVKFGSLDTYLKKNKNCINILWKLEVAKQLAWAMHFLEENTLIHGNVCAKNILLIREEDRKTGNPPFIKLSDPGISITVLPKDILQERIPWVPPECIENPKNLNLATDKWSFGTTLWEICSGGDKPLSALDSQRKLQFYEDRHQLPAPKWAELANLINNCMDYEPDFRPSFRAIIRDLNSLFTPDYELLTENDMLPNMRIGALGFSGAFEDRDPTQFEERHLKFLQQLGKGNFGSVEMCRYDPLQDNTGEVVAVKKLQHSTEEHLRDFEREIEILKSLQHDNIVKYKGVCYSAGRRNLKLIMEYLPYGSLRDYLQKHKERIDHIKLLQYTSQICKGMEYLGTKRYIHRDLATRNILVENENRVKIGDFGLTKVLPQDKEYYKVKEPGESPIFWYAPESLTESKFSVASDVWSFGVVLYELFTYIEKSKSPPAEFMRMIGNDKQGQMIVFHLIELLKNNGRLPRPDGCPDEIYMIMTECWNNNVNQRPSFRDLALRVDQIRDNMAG
T38 sequence (Q02763 23-1124): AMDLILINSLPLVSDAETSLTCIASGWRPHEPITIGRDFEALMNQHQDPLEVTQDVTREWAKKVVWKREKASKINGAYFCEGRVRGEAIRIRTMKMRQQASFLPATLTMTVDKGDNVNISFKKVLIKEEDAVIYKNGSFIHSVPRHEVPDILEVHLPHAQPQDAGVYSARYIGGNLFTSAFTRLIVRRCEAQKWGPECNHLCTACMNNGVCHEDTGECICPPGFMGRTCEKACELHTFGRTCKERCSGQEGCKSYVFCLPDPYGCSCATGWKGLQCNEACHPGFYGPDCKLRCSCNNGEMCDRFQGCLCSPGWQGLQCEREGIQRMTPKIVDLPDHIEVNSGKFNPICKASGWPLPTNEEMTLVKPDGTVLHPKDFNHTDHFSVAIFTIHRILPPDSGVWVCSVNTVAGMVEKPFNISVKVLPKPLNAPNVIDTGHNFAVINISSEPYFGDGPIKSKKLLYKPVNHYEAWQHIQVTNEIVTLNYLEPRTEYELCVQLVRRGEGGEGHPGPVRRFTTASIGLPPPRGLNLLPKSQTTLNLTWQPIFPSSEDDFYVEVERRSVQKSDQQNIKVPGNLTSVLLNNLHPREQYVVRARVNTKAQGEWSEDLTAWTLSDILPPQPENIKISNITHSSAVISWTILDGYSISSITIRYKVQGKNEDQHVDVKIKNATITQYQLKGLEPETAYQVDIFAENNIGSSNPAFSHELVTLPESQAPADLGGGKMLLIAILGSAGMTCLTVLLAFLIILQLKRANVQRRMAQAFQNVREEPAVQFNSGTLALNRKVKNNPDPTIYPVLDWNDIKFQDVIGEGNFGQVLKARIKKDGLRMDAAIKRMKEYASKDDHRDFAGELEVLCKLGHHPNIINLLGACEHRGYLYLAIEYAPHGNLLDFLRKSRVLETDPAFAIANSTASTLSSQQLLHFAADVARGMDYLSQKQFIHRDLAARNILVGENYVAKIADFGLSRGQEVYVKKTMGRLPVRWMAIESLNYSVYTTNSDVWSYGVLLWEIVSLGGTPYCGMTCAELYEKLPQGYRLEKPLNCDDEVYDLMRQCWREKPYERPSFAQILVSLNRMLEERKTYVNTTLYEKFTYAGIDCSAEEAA
T12 sequence (Q9HCP0 whole entry): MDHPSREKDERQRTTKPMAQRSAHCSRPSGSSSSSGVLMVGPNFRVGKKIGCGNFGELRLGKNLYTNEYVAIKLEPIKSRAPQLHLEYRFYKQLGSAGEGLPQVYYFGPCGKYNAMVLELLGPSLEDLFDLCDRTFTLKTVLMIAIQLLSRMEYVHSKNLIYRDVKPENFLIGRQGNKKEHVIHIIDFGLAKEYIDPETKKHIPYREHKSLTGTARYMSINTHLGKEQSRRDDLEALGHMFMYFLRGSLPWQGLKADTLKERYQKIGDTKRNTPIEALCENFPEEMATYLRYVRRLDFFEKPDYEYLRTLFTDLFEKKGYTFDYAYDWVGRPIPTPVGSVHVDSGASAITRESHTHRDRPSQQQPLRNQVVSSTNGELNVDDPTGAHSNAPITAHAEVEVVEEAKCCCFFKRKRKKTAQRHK
T18 sequence (P42681 whole entry): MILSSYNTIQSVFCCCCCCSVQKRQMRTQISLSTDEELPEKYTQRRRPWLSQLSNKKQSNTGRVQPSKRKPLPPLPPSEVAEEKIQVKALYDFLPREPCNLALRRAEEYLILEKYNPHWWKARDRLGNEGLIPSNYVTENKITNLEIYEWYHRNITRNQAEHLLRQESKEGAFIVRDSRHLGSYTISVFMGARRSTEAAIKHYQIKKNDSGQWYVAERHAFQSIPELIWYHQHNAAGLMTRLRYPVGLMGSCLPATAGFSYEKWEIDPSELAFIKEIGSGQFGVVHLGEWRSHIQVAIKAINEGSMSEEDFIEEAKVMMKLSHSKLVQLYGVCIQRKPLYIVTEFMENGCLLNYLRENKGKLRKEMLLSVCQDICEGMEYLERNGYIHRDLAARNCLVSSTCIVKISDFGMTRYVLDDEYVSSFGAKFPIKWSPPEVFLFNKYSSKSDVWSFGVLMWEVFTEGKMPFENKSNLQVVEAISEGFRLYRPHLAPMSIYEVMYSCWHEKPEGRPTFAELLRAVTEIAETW
T17 sequence (P47809 whole entry): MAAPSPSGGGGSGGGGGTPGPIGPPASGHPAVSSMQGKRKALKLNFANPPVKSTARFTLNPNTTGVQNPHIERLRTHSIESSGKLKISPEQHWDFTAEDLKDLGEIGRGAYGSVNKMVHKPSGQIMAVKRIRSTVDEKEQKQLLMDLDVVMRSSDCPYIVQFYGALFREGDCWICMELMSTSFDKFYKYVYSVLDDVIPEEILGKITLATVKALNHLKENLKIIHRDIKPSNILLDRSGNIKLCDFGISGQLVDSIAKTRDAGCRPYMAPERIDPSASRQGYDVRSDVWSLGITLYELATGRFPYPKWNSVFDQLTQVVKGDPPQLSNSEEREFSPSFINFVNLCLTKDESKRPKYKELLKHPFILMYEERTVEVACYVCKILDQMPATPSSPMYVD

Avg. POC (MSK2): 126 POC
Avg. POC (MELK): 97.5 POC
Avg. POC (Abl2): 112.5 POC
Avg. POC (EGFR): 107.5 POC
Avg. POC (CSK): 104.5 POC
Avg. POC (EphA3): 98 POC
Avg. POC (DYRK2): 85.5 POC
Avg. POC (EphB1): 85 POC
Avg. POC (HIPK1): 111 POC
Avg. POC (Flt1): 100 POC
Avg. POC (SRC): 107 POC
Avg. POC (CK1gamma1): 109 POC
Avg. POC (EphA8): 98.5 POC
Avg. POC (BLK_m): 113 POC
Avg. POC (WNK3): 115.5 POC
Avg. POC (PKCzeta): 104 POC
Avg. POC (MKK4_m): 113 POC
Avg. POC (Txk): 130 POC
Avg. POC (TAO2): 104.5 POC
Avg. POC (Syk): 99.5 POC
Avg. POC (PASK): 111 POC
Avg. POC (Plk1): 104 POC
Avg. POC (PRK2): 104 POC
Avg. POC (Rsk1): 115 POC
Avg. POC (p38beta): 98.5 POC
Avg. POC (CAMK2d): 102 POC
Avg. POC (Fgr): 121 POC
Avg. POC (Met): 110 POC
Avg. POC (ROCK-II): 122 POC
Avg. POC (Pyk2): 98.5 POC
Avg. POC (DAPK1): 103 POC
Avg. POC (CK2): 109 POC
Avg. POC (MKK7beta): −2 POC
Avg. POC (MuSK): 108.5 POC
Avg. POC (JAK2): 117 POC
Avg. POC (BrSK2): 116 POC
Avg. POC (MRCKalpha): 101.5 POC
Avg. POC (Tie2): 119 POC
Avg. POC (ROCK-I): 95.5 POC
Avg. POC (p38delta): 105 POC
Avg. POC (TrkB): 0.5 POC
Structure (SMILES): COCCN1C[C@@H](NC(=O)Nc2c(-c3ccccc3)nc3c(C)nccn23)[C@H](c2ccc(F)c(F)c2)C1 [Example 20, 1-((3S,4R)-4-(3,4-difluorophenyl)-1-(2-methoxyethyl)pyrrolidin-3-yl)-3-(8-methyl-2-phenylimidazo[1,2-a]pyrazin-3-yl)urea]
